Experimental findings from PMC6678097, “Machilin A Inhibits Tumor Growth and Macrophage M2 Polarization Through the Reduction of Lactic Acid” (Cancers, 2019) are described below.

For one test, the system named is HT29. In words: Cell viability, MTT assay. The class given is cell-based, human. How it is done: (§1) Human colon cancer cells (WiDr, DLD-1, RKO, and HT29) and murine Lewis lung carcinoma (LLC) cells were purchased from the American Type Culture Collection (Manassas, VA, USA). Human breast cancer MCF7 cells, human hepatocellular carcinoma cells (Huh-7, HepG2, and Hep3B), and human lung cancer cells (HCC-95 and NCI-H1793) were provided by the Korean Cell Line Bank (Seoul, Korea). The HCC-95 and NCI-H1793 cells were grown in a Roswell park memorial institute medium (RPMI) 1640 medium (HyClone^TM; GE Healthcare, Chicago, IL, USA). All other cells were grown in Dulbecco’s modified eagle medium (DMEM) supplemented with L-glutamine (200 mg/L), 10% (v/v) heat-inactivated fetal bovine serum (FBS; Sigma-Aldrich, St. Louis, MO, USA), and antibiotics (100 U/mL penicillin and 100 μg/mL streptomycin; Thermo Fisher Scientific, Waltham, MA, USA) in a humidified incubator at 37 °C and with 5% CO2 before the experiments. For induction of hypoxia condition (1% oxygen), the cells were cultured were cultured in the mixture of 94% nitrogen and 5% CO2/air at 37 °C for 24 h in cell culture incubator. Cytotoxicity of MA was evaluated using an MTT assay. Briefly, cells were incubated in 24-well plates with specified concentrations of MA for 24 or 48 h. Then, MTT solution (2.0 mg/mL) was added to each well. After 4 h of incubation at 37 °C and 5% CO2 in a cell culture incubator, the conditioned media were removed, and the amount of formazan crystals formed in living cells was estimated by measuring the absorbance at 540 nm using a microplate reader (Spectramax M2; Molecular Devices, CA, USA). The respective percentages of living cells were compared with a control treatment.

The target of a further test is LDHA (Homo sapiens, UniProt P00338). As to the kind of experiment: Surface plasmon resonance (SPR) biosensor analysis of LDHA binding. To be noted: 25 °C, read-out: apparent KD of binding to LDHA. Also on record: Full-length LDHA (residues 1–331) was obtained from cDNA by polymerase chain reaction (PCR); inferred from pET-28a vector and Ni-NTA purification; made in house; host or cells: E. coli BL21 (DE3). As for the experimental part: The apparent dissociation constants (KD) between LDHA and Machilin A were measured using a Biacore T100 biosensor (GE Healthcare, Chicago, IL, USA). […] A total of 150 μL LDHA (50 μg/mL) in 10 mM sodium acetate (pH 5.5) was coupled via injection for 15 min at 10 μL/min, followed by injection of 1 M ethanolamine to deactivate the residual amines. To measure kinetics at 25 °C, chemical compounds with concentrations ranging from 500 to 62 μM were prepared by dilution in running buffer (10 mM HEPES, 150 mM NaCl, 0.005% v/v surfactant P20, and 1% DMSO) at a pH of 7.4. The immobilized ligand was regenerated by injecting 10 μL of 50 mM NaOH at a rate of 10 μL/min during the cycles.

A further test deals with HepG2. In words: Cell viability, MTT assay. The class given is cell-based. Conditions: Homo sapiens, normoxic. As for the experimental part: as §1
Another test has as its system MCF-7. In words: Cell viability, MTT assay. It counts as cell-based. Conditions: Homo sapiens, MCF7, normoxic. As for the experimental part:
as §1

Another test concerns Huh7. In words: Cell viability, MTT assay. The class given is cell-based. Conditions: Homo sapiens, Huh-7, normoxic. As for the experimental part: as §1
A further test concerns RKO. As to the kind of experiment: Cell viability, MTT assay. The class given is cell-based. Conditions: Homo sapiens, normoxic. As for the experimental part: as §1
The next test has as its system HCC-95. As to the kind of experiment: Cell viability, MTT assay. Conditions: Homo sapiens, HCC95, normoxic. The class given is cell-based. As for the experimental part: as §1
For another test, the system named is NCI-H1793. In words: Cell viability, MTT assay. The class given is cell-based. Conditions: Homo sapiens, normoxic. How it is done: as §1
Another test concerns DLD-1. As to the kind of experiment: Cell viability, MTT assay. It counts as cell-based. Conditions: Homo sapiens, normoxic. How it is done: as §1
The next test relates to WiDr. In words: Cell viability, MTT assay. It counts as cell-based. Conditions: Homo sapiens, normoxic. How it is done:
as §1

The subject of test [1] is HT29 colorectal cancer cells. As to the kind of experiment: Measurement of intracellular ATP. It counts as cell-based, human. To be noted: machilin A 30 μM, hypoxia. How it is done:
Intracellular ATP concentration was measured using an ATP bioluminescent somatic cell assay kit (Sigma-Aldrich) as previously described. A total of 1 × 10^6 cells were trypsinized and resuspended in ultrapure water. Luminescence was measured using a spectrofluometer (Spectramax M2, Molecular Devices, CA, USA) immediately after the addition of an ATP enzyme mix to the cell suspension.

Test [2] deals with T1, purified recombinant human LDHA (rhLDHA) (Homo sapiens, UniProt P00338).
T1 construct: made in house
As to the kind of experiment: NADH binding assay (LDHA binding to Cibacron Blue 3GA agarose). To be noted: machilin A 10 and 100 μM; NADH positive control. How it is done:
An NADH binding assay was performed as described previously. The NADH binding ability of LDHA was determined by measuring the affinity of LDHA to agarose-immobilized Cibacron Blue 3GA, which resembles NADH. Then, 400 ng of purified recombinant human LDHA (rhLDHA) was incubated with NADH or MA, followed by incubation with 30 µL of Cibacron Blue agarose at 4 °C for 2 h. After a washing step with 20 mM Tris-HCl (pH 8.6), LDHA bound to beads was eluted in PBS using a sodium dodecyl sulfate (SDS) gel running buffer and was then subjected to–SDS-polyacrylamide gel electrophoresis (SDS-PAGE) and western blotting. Standardized amounts of protein were used in each reaction.

For the compound `C[C@H](Cc1ccc2c(c1)OCO2)[C@@H](C)Cc1ccc2c(c1)OCO2` [MA, bis(3,4-methylenedioxy)-8,8’-lignan], the IC50 was 107 ± 4.66 µM in the test with HT29 (Homo sapiens, HT-29, normoxic); 156 ± 23.2 µM in the test with HepG2; 217 ± 12.9 µM in the test with MCF-7; 198 ± 26.7 µM in the test on Huh7; 192 ± 15.2 µM with RKO; 228 ± 13.9 µM with HCC-95. In addition, the half-maximal inhibitory concentration (IC50) came to 96.7 ± 5.32 µM in the test with NCI-H1793, 423 ± 17.6 µM in the test on DLD-1 and 17.2 ± 5.75 µM in the test with WiDr. For the same compound, the growth of cells result in the test on HT29 (hypoxic and normoxic conditions, 48 h) is “substantially inhibited the growth”. Moreover, on LDHA, the Kd was found to be 29 µM. Besides, the “increase of adenosine triphosphate (ATP) synthesis in hypoxic condition” value in test [1] is on record as “significantly reduced”. Moreover, the “LDHA binding to Cibacron Blue Agarose beads (NADH mimic)” value in test [2] is “prohibited LDHA binding”.
